In the NIST ThermoML archive (doi:10.1021/je700293s):

Assay: xn = mol fraction of the nth substance listed
Conditions: 101 kPa, Liquid, Capillary tube (Ostwald / Ubbelohde) method

CCCCCCCC(=O)OCC(COC(=O)CCCCCCC)OC(=O)CCCCCCC [1,2,3-propanetriol trioctanoate] + CCCCCCCCCC(=O)O
kinematic viscosity [m2/s]
Conditions	303.15 K	313.15 K	323.15 K	333.15 K	343.15 K	353.15 K	363.15 K
x2 = 0.4763	1.48e-05	1.05e-05	7.89e-06	6.15e-06	5.12e-06	4.13e-06	3.53e-06
x2 = 0.7423	1.29e-05	9.46e-06	7.16e-06	5.66e-06	4.57e-06	3.88e-06	3.18e-06
x2 = 0.8902	8.98e-06	7.83e-06	6.09e-06	4.9e-06	3.99e-06	3.24e-06	2.58e-06

CCCCCCCC/C=C\CCCCCCCC(=O)O [(Z)-9-octadecenoic acid] + CCCCCCCC/C=C\CCCCCCCC(=O)OCC(COC(=O)CCCCCCC/C=C\CCCCCCCC)OC(=O)CCCCCCC/C=C\CCCCCCCC
x1 = 0.758
Conditions	kinematic viscosity [m2/s]
293.15 K	6.78e-05
303.15 K	4.49e-05
313.15 K	3.13e-05
323.15 K	2.28e-05
333.15 K	1.62e-05
343.15 K	1.26e-05
353.15 K	1e-05
363.15 K	8.22e-06

CCCCCCCC/C=C\CCCCCCCC(=O)O [(Z)-9-octadecenoic acid] + CCCCCCCCCC(=O)O
kinematic viscosity [m2/s]
Conditions	303.15 K	313.15 K	323.15 K	333.15 K	343.15 K	353.15 K	363.15 K
x2 = 0.3533	1.99e-05	1.45e-05	1.09e-05	8.52e-06	6.83e-06	5.63e-06	4.69e-06
x2 = 0.6211	1.45e-05	1.08e-05	8.25e-06	6.39e-06	5.17e-06	4.27e-06	3.36e-06

CCCCC/C=C\C/C=C\CCCCCCCC(=O)O [(Z,Z)-9,12-octadecadienoic acid] + CCCCCCCC/C=C\CCCCCCCC(=O)OCC(COC(=O)CCCCCCC/C=C\CCCCCCCC)OC(=O)CCCCCCC/C=C\CCCCCCCC
x1 = 0.7576
Conditions	kinematic viscosity [m2/s]
303.15 K	2.96e-05
313.15 K	2.13e-05
323.15 K	1.59e-05
333.15 K	1.23e-05
343.15 K	9.76e-06
353.15 K	7.91e-06
363.15 K	6.52e-06

CCCCC/C=C\C/C=C\CCCCCCCC(=O)OCC(COC(=O)CCCCCCC/C=C\C/C=C\CCCCC)OC(=O)CCCCCCC/C=C\C/C=C\CCCCC [trilinolein] + CCCCC/C=C\C/C=C\CCCCCCCC(=O)O
x2 = 0.7536
Conditions	kinematic viscosity [m2/s]
303.15 K	2.55e-05
313.15 K	1.85e-05
323.15 K	1.31e-05
333.15 K	9.96e-06
343.15 K	7.98e-06
353.15 K	6.83e-06
363.15 K	5.69e-06

CCCCC/C=C\C/C=C\CCCCCCCC(=O)OCC(COC(=O)CCCCCCC/C=C\C/C=C\CCCCC)OC(=O)CCCCCCC/C=C\C/C=C\CCCCC [trilinolein] + CCCCCCCC/C=C\CCCCCCCC(=O)O
x2 = 0.7564
Conditions	kinematic viscosity [m2/s]
293.15 K	4.14e-05
303.15 K	2.82e-05
313.15 K	2.07e-05
323.15 K	1.48e-05
333.15 K	1.15e-05
343.15 K	9.32e-06
353.15 K	7.62e-06
363.15 K	6.38e-06
